Results on 24 compounds are retold here after publication PMC6186272 (Stem Cells Translational Medicine, 2018).

Data set [1] concerns Wnt3a. Kind of data set: Quantitative RT-PCR of Wnt3a expression during cardiac differentiation. It counts as cell-based, human. Particulars: CHIR99021 6 μM day 0, 1.5 μM day 1; SB203580 and TA-01 5 μM.
In data set [2] the test system is IMR‐90 cells. Kind of data set: Monolayer cardiac differentiation, IMR-90 cells. In kind it is cell-based, human. The note with it: 5 μM (IWR-1: 2.5 μM), days 3–5, day 13.
The subject of data set [3] is HES‐3 (NKX2‐5eGFP/w reporter cell line). It counts as cell-based, human. Particulars: for Induction of cardiomyogenesis in HES-3 cells: 5 μM, days 3–5, day 13; for Percentage of NKX2‐5/GFP positive cells: HES-3, 5 μM (IWR-1: 2.5 μM), days 3–5, flow cytometry day 13, DMSO 14%.
The subject of data set [4] is H1 cells. Nature of the data set: Monolayer cardiac differentiation, H1 cells. Particulars: days 3–5, day 13; for Cardiac differentiation in H1 cells: 5 μM; for NKX2‐5/cTnT‐positive cells: H1, 5 μM (IWR-1: 2.5 μM). In kind it is cell-based, human.
Data set [5] deals with hPSCs. Particulars: for Cell proliferation during neural differentiation: 5 and 10 μM, days 1 to 9, cell count day 9.
The subject of data set [6] is HES‐3 (NKX2–5eGFP/w reporter cell line). The note with it: 5 μM, days 3–5, image analysis on day 13.
The test system of data set [7] is Wnt/β‐catenin pathway.
Data set [8] concerns the target T1, TGFBR2 (Homo sapiens, UniProt P37173). The note with it: 1 μM compound.
For data set [9], the system named is BMPR1B kinase. Particulars: percentage of control; cited from earlier work.
Data set [10] deals with T1, TGFBR2. Particulars: cited from earlier work.
Data set [11] is described as follows: Permeability test: mass retention to the artificial membrane. It counts as in vitro ADME.
Data set [12] relates to NKX2‐5/GFP‐positive cells. The note with it: added from days 4 to 8; cited from earlier work.
In data set [13] the test system is SMAD/GFP reporter cell line (TGFβ pathway). Particulars: 5 μM, then TGFβ3 2, 100, 1000 ng/ml.
The test system of data set [14] is SMAD2 phosphorylation (TGFβ pathway). Particulars: 5 μM, day 3, 30 minutes to 8 hours.
The target of data set [15] is T2, ALK5 (Homo sapiens, UniProt P36897).
T2 sequence (P36897 34-503): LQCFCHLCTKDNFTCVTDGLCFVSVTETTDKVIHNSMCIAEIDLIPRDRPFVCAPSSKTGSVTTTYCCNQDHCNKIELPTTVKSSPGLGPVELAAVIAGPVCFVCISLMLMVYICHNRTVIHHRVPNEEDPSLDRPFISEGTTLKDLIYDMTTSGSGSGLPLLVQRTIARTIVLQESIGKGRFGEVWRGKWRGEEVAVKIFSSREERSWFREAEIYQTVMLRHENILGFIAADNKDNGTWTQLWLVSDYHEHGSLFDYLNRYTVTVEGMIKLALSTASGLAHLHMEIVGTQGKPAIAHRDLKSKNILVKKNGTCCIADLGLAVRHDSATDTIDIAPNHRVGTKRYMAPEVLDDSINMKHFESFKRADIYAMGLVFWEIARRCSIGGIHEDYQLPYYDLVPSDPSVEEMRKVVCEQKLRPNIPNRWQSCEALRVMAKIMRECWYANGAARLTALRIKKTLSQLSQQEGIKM
Kind of data set: LanthaScreen Eu Kinase binding assay, ALK5. The note with it: for IC50: read-out: ALK5 IC50 ± SEM, mean ± SEM, triplicate.

T1 sequence (P37173 23-567): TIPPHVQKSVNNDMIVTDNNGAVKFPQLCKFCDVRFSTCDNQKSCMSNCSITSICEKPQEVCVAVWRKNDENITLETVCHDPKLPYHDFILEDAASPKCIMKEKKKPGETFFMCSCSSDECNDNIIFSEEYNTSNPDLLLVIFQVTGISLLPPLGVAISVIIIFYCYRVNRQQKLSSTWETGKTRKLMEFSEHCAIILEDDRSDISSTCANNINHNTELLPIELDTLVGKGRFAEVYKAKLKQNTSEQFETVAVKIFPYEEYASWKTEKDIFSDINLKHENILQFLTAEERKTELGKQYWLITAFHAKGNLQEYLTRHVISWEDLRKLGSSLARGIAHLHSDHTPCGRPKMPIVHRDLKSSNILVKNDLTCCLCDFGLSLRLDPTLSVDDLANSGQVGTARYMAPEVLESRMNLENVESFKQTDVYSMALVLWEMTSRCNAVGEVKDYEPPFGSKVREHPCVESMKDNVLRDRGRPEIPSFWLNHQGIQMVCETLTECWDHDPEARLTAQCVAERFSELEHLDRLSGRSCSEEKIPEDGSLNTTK

Regarding `Cc1c[nH]c(-c2cnc(NCCNc3ccc(C#N)cn3)nc2-c2ccc(Cl)cc2Cl)n1` [CHIR99021], the “Suppression of Wnt3a expression on day 3” value in [1] is on record as “expression of Wnt3a was suppressed”.

For the compound `Cc1cccc(-c2[nH]ncc2-c2ccc(F)c(-c3cnn(CCO)c3)c2)n1` [Compound R268712], in data set [2], the “Cardiac differentiation in IMR-90 cells” value is “promoted cardiac differentiation”. Moreover, the “Induction of cardiomyogenesis in HES-3 cells” value (shortened to “Induction of cardiomyogenesis”) in data set [3] is “failed to induce cardiomyogenesis”. Further, the “Cardiac differentiation in H1 cells” value in data set [4] is recorded as “promoted cardiac differentiation”.

Regarding `CCOC(=O)C1=C(C)NC2=C(C(=O)CC(C)(C)C2)C1c1ccc(-c2ccccc2)cc1` (stereo not shown) [ITD‐1], in data set [3], the “Percentage of NKX2‐5/GFP positive cells” value is on record as 25%. For the same compound, the “Cell proliferation during neural differentiation” value in data set [5] is on record as “inhibit cell proliferation”. Also, the “NKX2‐5/cTnT‐positive cells” value in data set [4] is reported as ~ 40%.

For the compound `Cc1ccc2nc(NC(=O)CSc3nc4c(c(=O)n3-c3ccccc3)SCC4)sc2c1` [IWP-2, reference compound], the “NKX2-5/GFP expression of EBs compared with TA-01” value in [6] is given as “higher GFP expression than the lead compound TA‐01”.

`O=C(Nc1cccc2cccnc12)c1ccc(N2C(=O)[C@@H]3[C@H](C2=O)[C@@H]2C=C[C@H]3C2)cc1` [IWR-1]: the “Cardiac differentiation in IMR-90 cells” value in data set [2] was “did not increase”. The “Axin 1 and 2 expression” value in data set [7] (2.5 μM) was “upregulation”. In addition, the “NKX2‐5/cTnT‐positive cells” value in data set [4] is recorded as “approximately 80%”.

In the case of `Cc1cccc(-c2[nH]ncc2-c2ccc3ncccc3n2)n1` [RepSox], the “Cardiac differentiation in IMR-90 cells” value in data set [2] is on record as “promoted cardiac differentiation”. For the same compound, in data set [3], the “Induction of cardiomyogenesis” value was “failed to induce cardiomyogenesis”. Further, the “Cardiac differentiation in H1 cells” value in data set [4] is recorded as “promoted cardiac differentiation”.

With `C[S+]([O-])c1ccc(-c2nc(-c3ccncc3)c(-c3ccc(F)cc3)[nH]2)cc1` (stereo not shown) [SB203580], the “Suppression of Wnt3a expression on day 3” value in data set [1] is “not observed”.

For `Fc1ccc(Cl)cc1-c1nc(Nc2ccncc2)c2nccnc2n1` [SD208], the “Cardiac differentiation in IMR-90 cells” value in data set [2] is “promoted cardiac differentiation”. In [3], the “Induction of cardiomyogenesis” value was “failed to induce cardiomyogenesis”. Also, in data set [4], the “Cardiac differentiation in H1 cells” value is reported as “promoted cardiac differentiation”.

For `Fc1ccc(-c2nc(-c3c(F)cccc3F)[nH]c2-c2ccncc2)cc1` [TA-01], the “Percentage inhibition of TGFBR2 at 1 μM” value in data set [8] turned out to be 91%. In [3], the “Percentage of NKX2‐5/GFP positive cells” value is 30%–40%. Also, the “Suppression of Wnt3a expression on day 3” value in [1] is recorded as “not observed”. Besides, in data set [9], the “BMPR1B binding, POC at 10 μM” value is given as 6.2. Further, the “TGFBR2 binding, percentage of control at 10 μM” value in data set [10] is 1.6. Moreover, the “Permeability compared with IWR-1 and CHIR99021” value in data set [11] is “less permeable”. Also, the “Increase in the percentage expression of NKX2‐5/GFP‐positive cells over DMSO” value in data set [12] is recorded as “threefold”.

For `Fc1ccc(-c2nc(-c3ccccc3)[nH]c2-c2ccncc2)cc1` [TI-14, 4-(4(5)-(4-Fluorophenyl)-2-phenyl-1H-imidazol-5(4)-yl)pyridine], the “NKX2-5/GFP expression of EBs compared with TA-01” value in data set [6] is recorded as “higher GFP expression than the lead compound TA‐01”.

Consider `Fc1ccc(-c2nc(-c3c(Cl)cccc3Cl)[nH]c2-c2ccncc2)cc1` [TI-15, 4-(2-(2,6-Dichlorophenyl)-4(5)-(4-fluorophenyl)-1H-imidazol-5(4)-yl)pyridine], for which the “Percentage inhibition of TGFBR2 at 1 μM” value in data set [8] is given as 80%. Besides, in data set [13], the “Numbers of GFP‐positive cells (nuclear SMAD/GFP reporter)” value is “reduced”. In data set [3] (days 2–5, data not shown), the “Cell proliferation during cardiac differentiation, dosing days 2–5” value is reported as “inhibition of cell proliferation”. Besides, in [3] (days 3–5), the “Cell growth during cardiac differentiation, dosing days 3–5” value is on record as “does not inhibit cell growth”. The “Phosphorylation of SMAD2 protein at Ser 465/467” value in [14] is given as “significantly reduced”. In addition, the “Cell growth during neural differentiation at 2.5 μM” value in data set [5] (2.5 μM, days 1 to 9) was “not at the concentration of 2.5 μM”. Besides, in data set [5], the “Cell proliferation during neural differentiation” value is given as “inhibit cell proliferation”. In addition, the “β‐catenin phosphorylation on Ser552/675 and downstream TCF‐1/LEF‐1 expression” value in [7] (5 μM, day 3, 1, 4 and 8 hours after treatment) was “expression levels did not change”. In data set [15] (ratio of IC50 values), the “Potency in the inhibition of ALK5 relative to TA‐01” value is “approximately 10 times”. Further, the “Permeability compared with IWR-1 and CHIR99021” value in data set [11] is given as “less permeable”. In addition, the “NKX2-5/GFP expression of EBs compared with TA-01” value in data set [6] was “higher GFP expression than the lead compound TA‐01”.

Consider `COc1ccccc1-c1nc(-c2ccc(F)cc2)c(-c2ccncc2)[nH]1` [TI-16, 4-(2-(2-Methoxyphenyl)-4(5)-(4-fluorophenyl)-1H-imidazol-5(4)-yl)pyridine], for which the “NKX2-5/GFP expression of EBs compared with TA-01” value in [6] is on record as “higher GFP expression than the lead compound TA‐01”.

For the compound `COc1cccc(OC)c1-c1nc(-c2ccc(F)cc2)c(-c2ccncc2)[nH]1` [TI-18, 4-(2-(2,6-Dimethoxyphenyl)-4(5)-(4-fluorophenyl)-1H-imidazol-5(4)-yl)pyridine], the IC50 in [15] came out at 747 nM.

As to `COc1cccc(F)c1-c1nc(-c2ccc(F)cc2)c(-c2ccncc2)[nH]1` [TI-20, 4-(2-(2-Fluoro-6-methoxyphenyl)-4(5)-(4-fluorophenyl)-1H-imidazol-5(4)-yl)pyridine], the “NKX2-5/GFP expression of EBs compared with TA-01” value in [6] was “higher GFP expression than the lead compound TA‐01”.

As for `Fc1ccc(-c2nc(-c3c(F)cccc3Br)[nH]c2-c2ccncc2)cc1` [TI-21, 4-(2-(2-Bromo-6-fluorophenyl)-4(5)-(4-fluorophenyl)-1H-imidazol-5(4)-yl)pyridine], the IC50 in data set [15] was 10.9 nM. Also, the “NKX2-5/GFP expression of EBs compared with TA-01” value in data set [6] is recorded as “higher GFP expression than the lead compound TA‐01”.

Regarding `O=[N+]([O-])c1cccc(Cl)c1-c1nc(-c2ccc(F)cc2)c(-c2ccncc2)[nH]1` [TI-24, 4-(2-(2-Chloro-6-nitrophenyl)-4(5)-(4-fluorophenyl)-1H-imidazol-5(4)-yl)pyridine], the IC50 in [15] stood at 13.1 nM. The “NKX2-5/GFP expression of EBs compared with TA-01” value in data set [6] is reported as “higher GFP expression than the lead compound TA‐01”.

`COc1cc(O)c(-c2nc(-c3ccc(F)cc3)c(-c3ccncc3)[nH]2)c(OC)c1` [TI-25, 2-(4(5)-(4-Fluorophenyl)-5(4)-(pyridin-4-yl)-1H-imidazol-2-yl)-3,5-dimethoxyphenol]: in data set [6], the “NKX2-5/GFP expression of EBs compared with TA-01” value was “higher GFP expression than the lead compound TA‐01”.

In the case of `O=[N+]([O-])c1ccccc1-c1nc(-c2ccc(F)cc2)c(-c2ccncc2)[nH]1` [TI-26, 4-(4(5)-(4-Fluorophenyl)-2-(2-nitrophenyl)-1H-imidazol-5(4)-yl)pyridine], the “NKX2-5/GFP expression of EBs compared with TA-01” value in data set [6] is reported as “higher GFP expression than the lead compound TA‐01”.

With `Cc1cccc(C)c1-c1nc(-c2ccc(F)cc2)c(-c2ccncc2)[nH]1` [TI-27, 4-(2-(2,6-Dimethylphenyl)-4(5)-(4-fluorophenyl)-1H-imidazol-5(4)-yl)pyridine], the “NKX2-5/GFP expression of EBs compared with TA-01” value in data set [6] is “higher GFP expression than the lead compound TA‐01”.

On to `Fc1ccc(-c2nc(-c3c(F)cccc3I)[nH]c2-c2ccncc2)cc1` [TI-29, 4-(2-(2-Fluoro-6-iodophenyl)-4(5)-(4-fluorophenyl)-1H-imidazol-5(4)-yl)pyridine], for which the IC50 in data set [15] worked out at 22.1 nM.

Take `Fc1ccc(-c2nc(-c3ccc4ccccc4c3Br)[nH]c2-c2ccncc2)cc1` [TI-33, 4-(2-(1-Bromonaphthalen-2-yl)-4(5)-(4-fluorophenyl)-1H-imidazol-5(4)-yl)pyridine]: the “NKX2-5/GFP expression of EBs compared with TA-01” value in [6] was “higher GFP expression than the lead compound TA‐01”.

For `Fc1ccc(-c2nc(C3CCCCC3)[nH]c2-c2ccncc2)cc1` [TI-34, 4-(2-Cyclohexyl-4(5)-(4-fluorophenyl)-1H-imidazol-5(4)-yl)pyridine], in [8], the “Percentage inhibition of TGFBR2 at 1 μM” value was found to be 81%.

Regarding `Fc1ccc(-c2c(-c3ccncc3)ncn2-c2ccccc2)cc1` [TI-38, 4-(5-(4-Fluorophenyl)-1-phenyl-1H-imidazol-4-yl)pyridine], the “Cell proliferation during neural differentiation” value in data set [5] is “inhibit cell proliferation”.

For the compound `Fc1ccc(-c2nc(-c3ccc4ccccc4c3F)[nH]c2-c2ccncc2)cc1` [TI-42, 4-(2-(1-Fluoronaphthalen-2-yl)-4(5)-(4-fluorophenyl)-1H-imidazol-5(4)-yl)pyridine], in data set [11], the “Permeability compared with IWR-1 and CHIR99021” value was “less permeable”.
